{
  "source": "patent US10829484B2",
  "about": "“Compounds and methods for kinase modulation, and indications therefor” (Plexxikon Inc., priority 2015, dated 2020)",
  "key": {"BaF3-FLT3-ITD-F691L": {"molecular_target": "T1, BaF3-FLT3-ITD-F691L (Homo sapiens, UniProt P36888, INS600HVDFREYEYD/F691L, cells depend on it)", "T1 sequence (P36888 with tags, fused parts or gaps INS600HVDFREYEYD/F691L)": "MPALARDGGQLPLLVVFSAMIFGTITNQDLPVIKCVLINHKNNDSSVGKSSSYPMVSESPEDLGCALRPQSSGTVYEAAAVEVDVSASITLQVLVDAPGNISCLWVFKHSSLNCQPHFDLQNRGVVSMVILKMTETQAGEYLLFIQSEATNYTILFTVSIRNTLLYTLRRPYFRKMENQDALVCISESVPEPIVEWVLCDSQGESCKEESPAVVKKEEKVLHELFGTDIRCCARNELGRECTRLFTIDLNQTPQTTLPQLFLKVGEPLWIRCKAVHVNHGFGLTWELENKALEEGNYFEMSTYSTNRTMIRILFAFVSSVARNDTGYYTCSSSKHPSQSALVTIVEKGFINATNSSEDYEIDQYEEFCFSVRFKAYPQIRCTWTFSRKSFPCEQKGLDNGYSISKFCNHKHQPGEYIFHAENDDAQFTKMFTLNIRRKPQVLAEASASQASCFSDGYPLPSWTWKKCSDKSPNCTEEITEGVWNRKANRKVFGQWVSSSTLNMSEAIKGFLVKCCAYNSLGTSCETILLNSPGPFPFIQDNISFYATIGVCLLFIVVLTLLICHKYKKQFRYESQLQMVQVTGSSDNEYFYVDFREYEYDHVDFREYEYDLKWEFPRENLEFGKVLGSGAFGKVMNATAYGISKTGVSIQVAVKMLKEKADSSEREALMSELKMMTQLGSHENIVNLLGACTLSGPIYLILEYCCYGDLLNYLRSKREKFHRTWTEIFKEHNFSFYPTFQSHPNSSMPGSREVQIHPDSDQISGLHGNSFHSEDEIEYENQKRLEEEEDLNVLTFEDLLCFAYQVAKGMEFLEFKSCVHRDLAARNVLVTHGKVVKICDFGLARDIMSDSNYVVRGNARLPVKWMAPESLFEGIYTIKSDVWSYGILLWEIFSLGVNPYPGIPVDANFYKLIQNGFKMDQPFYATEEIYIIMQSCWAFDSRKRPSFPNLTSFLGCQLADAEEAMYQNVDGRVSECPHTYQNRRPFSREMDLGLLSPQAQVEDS", "assay": "CTB viability assay CS0047, BaF3-FLT3-ITD-F691L", "assay_type": "cell-based, murine", "settings": "BaF3-FLT3-ITD-F691L cells, CellTiter Blue viability, 72 hours; read-out: Cell Assay: CS0047:BaF3-FLT3-ITD-F691L CTB:IC50", "from_the_text": "(§1) Gene constructs containing the human FLT3 sequences FLT3-ITD, FLT3-ITD-F691L, FLT3-ITD-D835V and FLT3-D835V were synthesized by reverse translation of the human protein sequences, with codons optimized for mammalian expression. Sequence of the internal tandem duplication (ITD) was based on the MV4-11 ITD sequence. Synthetic DNA constructs were cloned into the pMSCV puro retroviral vector (Clontech) and transfected into the EcoPack2-293 packaging cell line (Clontech) to generate retroviruses that contain the different FLT3 constructs. Viruses were transduced into the IL-3-dependent, murine […] cell line, Ba/F3, and selected for puromycin resistance and IL-3 independence. All cell lines were cloned by limiting dilution and clones were used for all subsequent cell assays. Overexpression of the FLT3 mutants in the Ba/F3 cells results in constitutive phosphorylation of the exogenous FLT3 protein, which is required for IL-3 independence.\n(§2) Cell lines were serum starved overnight in media containing 0.5% FBS, plated at 15,000 cells/well in 96-well white-walled tissue culture plates, and 3-fold serial dilutions of test compounds of Formula I were added for 72 hours at 37° C. CellTiter Blue (CTB, Promega) was added and incubated for an additional 3 hours at 37° C. Fluorescence was read at 560 nm excitation, 590 nm emission. Wells with CTB+media only were used for background subtraction, and the fluorescence of compound-treated cells was normalized to the fluorescence of DMSO-treated cells. IC50s were determined using Igor Pro software. All compounds are assayed in duplicate cell plates."}, "BaF3-FLT3-ITD-D835V": {"molecular_target": "T2, BaF3-FLT3-ITD-D835V (Homo sapiens, UniProt P36888, INS600HVDFREYEYD/D835V, cells depend on it)", "T2 sequence (P36888 with tags, fused parts or gaps INS600HVDFREYEYD/D835V)": "T1 sequence (P36888 with tags, fused parts or gaps INS600HVDFREYEYD/F691L) with L701F, D845V", "assay": "CTB viability assay CS0048, BaF3-FLT3-ITD-D835V", "assay_type": "cell-based, murine", "settings": "BaF3-FLT3-ITD-D835V cells, CellTiter Blue viability, 72 hours; read-out: Cell Assay: CS0048: BaF3-FLT3-ITD-D835V CTB:IC50", "from_the_text": "as §1, §2"}},
  "note": "Substitutions are numbered along the chain they refer to.",
  "data": [
    {"smiles": "Cc1nn(C)cc1Nc1ncc(-c2ccc(CC(=O)Nc3cc(C4(C(F)(F)F)CC4)on3)c(F)c2)c(N)n1", "note": "[P-149, 2-[4-[4-amino-2-[(1,3-dimethylpyrazol-4-yl)amino]pyrimidin-5-yl]-2-fluorophenyl]-N-[5-[1-(trifluoromethyl)cyclopropyl]isoxazol-3-yl]acetamide]", "values": [
      {"measurement": "GI50", "setting": "BaF3-FLT3-ITD-F691L", "value": "10 to 50", "unit": "nM"},
      {"measurement": "GI50", "setting": "BaF3-FLT3-ITD-D835V", "value": "10 to 50", "unit": "nM"}
    ]},
    {"smiles": "COc1nn(C(F)F)cc1Nc1ncc(-c2ccc(CC(=O)Nc3cc(C4(C(F)(F)F)CC4)on3)c(F)c2)c(C)n1", "note": "[P-144, 2-[4-[2-[[1-(difluoromethyl)-3-methoxypyrazol-4-yl]amino]-4-methyl-pyrimidin-5-yl]-2-fluorophenyl]-N-[5-[1-(trifluoromethyl)cyclopropyl]isoxazol-3-yl]acetamide]", "values": [
      {"measurement": "GI50", "setting": "BaF3-FLT3-ITD-F691L", "value": "10 to 50", "unit": "nM"},
      {"measurement": "GI50", "setting": "BaF3-FLT3-ITD-D835V", "value": "50 to 100", "unit": "nM"}
    ]},
    {"smiles": "O=C(Cc1ccc(-c2cnc(Nc3cnn(CCO)c3C3CC3)nc2)cc1F)Nc1cc(C2(C(F)(F)F)CC2)on1", "note": "[P-210, 2-[4-[2-[[5-cyclopropyl-1-(2-hydroxyethyl)pyrazol-4-yl]amino]pyrimidin-5-yl]-2-fluorophenyl]-N-[5-[1-(trifluoromethyl)cyclopropyl]isoxazol-3-yl]acetamide]", "values": [
      {"measurement": "GI50", "setting": "BaF3-FLT3-ITD-F691L", "value": "10 to 50", "unit": "nM"},
      {"measurement": "GI50", "setting": "BaF3-FLT3-ITD-D835V", "value": "10 to 50", "unit": "nM"}
    ]},
    {"smiles": "Cc1nc(Nc2cn(C)cn2)ncc1-c1ccc(CC(=O)Nc2cc(C3(C(F)(F)F)CC3)on2)c(F)c1", "note": "[P-119, 2-[2-fluoro-4-[4-methyl-2-[(1-methylimidazol-4-yl)amino]pyrimidin-5-yl]phenyl]-N-[5-[1-(trifluoromethyl)cyclopropyl]isoxazol-3-yl]acetamide]", "values": [
      {"measurement": "GI50", "setting": "BaF3-FLT3-ITD-F691L", "value": "10 to 50", "unit": "nM"},
      {"measurement": "GI50", "setting": "BaF3-FLT3-ITD-D835V", "value": "50 to 100", "unit": "nM"}
    ]}
  ]
}
